Assay results reported in patent publication US20190134034A1, “Method of Treating Liver Cancer” (ASLAN Pharmaceuticals Pte. Ltd., priority 2016, published 2019).
Entries after “also recorded” stand apart in the source; their conditions may differ.

How the values were obtained:
[1] = test system: MAPK pathway; experiment: Pharmacodynamics in HCC01-0708 PDX model; format: in vivo; conditions: after twelve days of treatment
[2] = test system: HCC29-0909A HCC patient-derived xenograft (co-expression of HER1, HER2 and HER3); experiment: HCC patient-derived xenograft model HCC29-0909A in SCID mice, tumour volume; format: in vivo; conditions: HCC29-0909A PDX in SCID mice
Experimental: A HCC patient-derived xenograft model in SCID mice (HCC29-0909A) with co-expression of HER1, HER2 and HER3 receptors [Cancer Res Aug. […] Dosing with varlitinib commenced when the tumours reached the size of approximately 100-150 mm^3. Bi-dimensional measurements are performed twice a week and tumour volumes are calculated based on the following formula: Tumour volume=[(Length)×(Width^2)×(p/6)].
Groups of mice were dosed as follows:
Group 1 control group received vehicle only
Group 2 received 25 mg/Kg of ASLAN001 BID (twice daily),
Group 3 received 50 mg/Kg of ASLAN001 BID (twice daily), and
Group 4 received 100 mg/Kg of ASLAN001 BID (twice daily).

[3] = test system: Huh7-SorR cells; experiment: Early apoptosis in sorafenib resistant cells (Muse Annexin V & Dead Cell Assay); format: cell-based; conditions: high dose of varlitinib
Experimental: (§1) An in vitro experiment was conducted to investigate whether varlitinib induced apoptosis in HCC cell lines. HCC cells were grown in cell culture medium with 10% FBS and with varying concentrations of varlitinib. Apoptosis profiles were analysed at 24 hour and 48 hour timepoints, using Muse Annexin V & Dead Cell Assay kit and Muse Cell Analyser. Early apoptosis cells (identified as Annexin V-PE positive and Dead Cell Marker negative) were measured and plotted.

[4] = test system: HCC01-0708 HER2/HER3 co-expressing PDX model of HCC; experiment: HCC patient-derived xenograft model HCC01-0708, tumour volume; format: in vivo; conditions: HCC01-0708 PDX; 25, 50 or 100 mg/kg BID
[5] = test system: PLC/PRF/5 cells; experiment: Apoptosis (AnnexinV) profile of PLC/PRF/5 cells; format: cell-based; conditions: 48 hour culture, increasing concentration
Experimental: as §1

[6] = test system: HCC cell lines; experiment: Early apoptosis in HCC cell lines (Muse Annexin V & Dead Cell Assay); format: cell-based; conditions: all HCC cell lines tested; 48 hours of incubation
Experimental: as §1

[7] = test system: phosphorylation of HER1-3, RAS/RAF/MEK/MAPK, p70S6K, S6 ribosomal, 4EBP1, Cdc-2 and retinoblastoma; experiment: Western blot analysis of tumour lysates from HCC29-0909A xenograft (pharmacodynamics); format: in vivo, SCID mice; conditions: Western blot of tumour lysates after two and fourteen days of treatment

C[C@@H]1COC(Nc2ccc3ncnc(Nc4ccc(OCc5nccs5)c(Cl)c4)c3c2)=N1 [varlitinib, (R)-N4-[3-Chloro-4-(thiazol-2-ylmethoxy)-phenyl]-N6-(4-methyl-4,5,-dihydro-oxazol-2-yl)-quinazoline-4,6-diamine]
inhibition of the MAPK pathway [1]: robust inhibition | tumor regression ([2]; 100 mg/kg BID): complete tumor regression | tumour growth inhibition (tumour volume) ([2]; 25, 50 or 100 mg/kg BID): potently inhibited tumour growth; also recorded: dose-dependent tumour volume growth inhibition | early apoptosis [3]: ~70% | tumour growth inhibition (tumour volume) [4]: inhibited tumour growth; also recorded: dose-dependent tumour volume growth inhibition | percentage of apoptotic cells [5]: increase in percentage of apoptotic cells correlates with increasing varlitinib concentration | induction of early apoptosis (Annexin V-PE positive, Dead Cell Marker negative) [6]: able to induce early apoptosis | phosphorylation of HER1-3, RAS/RAF/MEK/MAPK, p70S6K, S6 ribosomal, 4EBP1, Cdc-2 and retinoblastoma [7]: strongly inhibited
